Results taken from publication PMC5218480 (PLoS ONE, 2017).

System: MV-4-11 cells
Assay: Gene expression microarray analysis (Affymetrix PrimeView) and GSEA
Type: cell-based, human
Design: RFU PODN (11730768_x_at) / Fold change /veh PODN (11730768_x_at) / RFU LINC00158 (11744669_a_at) / Fold change /veh LINC00158 (11744669_a_at) / RFU DUSP10 (11751237_a_at) / Fold change /veh DUSP10 (11751237_a_at) / RFU ID3 (11757404_x_at) / Fold change /veh ID3 (11757404_x_at) / RFU PLEKHG5 (11737974_s_at) / Fold change /veh PLEKHG5 (11737974_s_at) / RFU LRRC4B (11730491_at) / Fold change /veh LRRC4B (11730491_at) / RFU GIMAP4 (11747438_a_at) / Fold change /veh GIMAP4 (11747438_a_at) / RFU KRT8 (11758183_x_at) / Fold change /veh KRT8 (11758183_x_at) / RFU CNN1 (11734310_a_at) / Fold change /veh CNN1 (11734310_a_at) / RFU VPS37D (11726825_at) / Fold change /veh VPS37D (11726825_at) / RFU C10orf10 (11716522_x_at) / Fold change /veh C10orf10 (11716522_x_at) / RFU KIR2DL2 /// KIR2DL4 /// KIR2DL5A /// KIR2DL5B /// KIR2DS1 /// KIR2DS2 /// KIR2DS3 /// KIR2DS4 /// KIR3DL3 /// KIR3DL3 /// KIR3DS1 (11738374_at) / Fold change /veh KIR2DL2 /// KIR2DL4 /// KIR2DL5A /// KIR2DL5B /// KIR2DS1 /// KIR2DS2 /// KIR2DS3 /// KIR2DS4 /// KIR3DL3 /// KIR3DL3 /// KIR3DS1 (11738374_at) / RFU C1QL1 (11718748_at) / Fold change /veh C1QL1 (11718748_at) / RFU TMPRSS4 (11747572_a_at) / Fold change /veh TMPRSS4 (11747572_a_at) / RFU HAMP (11756126_x_at) / Fold change /veh HAMP (11756126_x_at) / RFU RNFT2 (11725882_a_at) / Fold change /veh RNFT2 (11725882_a_at) / RFU NR4A2 (11747474_a_at) / Fold change /veh NR4A2 (11747474_a_at) / RFU ABCC12 (11746883_a_at) / Fold change /veh ABCC12 (11746883_a_at) / RFU TMEM136 (11760407_x_at) / Fold change /veh TMEM136 (11760407_x_at) / RFU CLDN22 /// WWC2 (11732394_at) / Fold change /veh CLDN22 /// WWC2 (11732394_at) / RFU HLA-DPB1 (11760878_x_at) / Fold change /veh HLA-DPB1 (11760878_x_at) / RFU SPINT1 (11716480_a_at) / Fold change /veh SPINT1 (11716480_a_at) / RFU GAP43 (11754022_s_at) / Fold change /veh GAP43 (11754022_s_at) / RFU A4GNT (11735810_at) / Fold change /veh A4GNT (11735810_at) / RFU PRB3 (11715151_x_at) / Fold change /veh PRB3 (11715151_x_at) / RFU TUBB4B (11761932_at) / Fold change /veh TUBB4B (11761932_at) / RFU CAPN14 (11732068_a_at) / Fold change /veh CAPN14 (11732068_a_at) / RFU TMCC2 (11721928_a_at) / Fold change /veh TMCC2 (11721928_a_at) / RFU IRGQ (11745062_a_at) / Fold change /veh IRGQ (11745062_a_at) / RFU FAM174B (11720279_a_at) / Fold change /veh FAM174B (11720279_a_at) / RFU TMPRSS4 (11748680_a_at) / Fold change /veh TMPRSS4 (11748680_a_at) / RFU FAM212B (11763350_a_at) / Fold change /veh FAM212B (11763350_a_at) / RFU PLEKHG5 (11743358_a_at) / Fold change /veh PLEKHG5 (11743358_a_at) / RFU ZSCAN30 (11745921_a_at) / Fold change /veh ZSCAN30 (11745921_a_at) / RFU CMKLR1 (11741424_a_at) / Fold change /veh CMKLR1 (11741424_a_at) / RFU LOC101060620 /// MAPK8IP1 (11723275_at) / Fold change /veh LOC101060620 /// MAPK8IP1 (11723275_at) / RFU SPTSSB (11747773_x_at) / Fold change /veh SPTSSB (11747773_x_at) / RFU PRSS12 (11739890_at) / Fold change /veh PRSS12 (11739890_at) / RFU BIN1 (11741810_x_at) / Fold change /veh BIN1 (11741810_x_at) / RFU WNT11 (11732464_a_at) / Fold change /veh WNT11 (11732464_a_at) / RFU C10orf10 (11716521_a_at) / Fold change /veh C10orf10 (11716521_a_at) / RFU C5orf56 (11738089_at) / Fold change /veh C5orf56 (11738089_at) / RFU CYB561 (11721691_x_at) / Fold change /veh CYB561 (11721691_x_at) / RFU ANKRD19P (11752326_a_at) / Fold change /veh ANKRD19P (11752326_a_at) / RFU OR2T12 /// OR2T33 /// OR2T8 (11738714_s_at) / Fold change /veh OR2T12 /// OR2T33 /// OR2T8 (11738714_s_at) / RFU VCAN (11748164_a_at) / Fold change /veh VCAN (11748164_a_at) / RFU JSRP1 (11732532_at) / Fold change /veh JSRP1 (11732532_at) / RFU KRTAP10-11 (11738290_x_at) / Fold change /veh KRTAP10-11 (11738290_x_at) / RFU MYO3A (11730013_a_at) / Fold change /veh MYO3A (11730013_a_at) / RFU EBF3 (11725865_a_at) / Fold change /veh EBF3 (11725865_a_at) / RFU CAMK2N1 (11719241_x_at) / Fold change /veh CAMK2N1 (11719241_x_at) / RFU C5orf56 (11738088_a_at) / Fold change /veh C5orf56 (11738088_a_at) / RFU OLFML3 (11715873_a_at) / Fold change /veh OLFML3 (11715873_a_at) / RFU LOC100653217 /// NTM (11731650_a_at) / Fold change /veh LOC100653217 /// NTM (11731650_a_at) / RFU MAPK11 (11762145_a_at) / Fold change /veh MAPK11 (11762145_a_at) / RFU FIZ1 (11724087_x_at) / Fold change /veh FIZ1 (11724087_x_at) / RFU OASL (11726364_x_at) / Fold change /veh OASL (11726364_x_at) / RFU SOX15 (11748057_x_at) / Fold change /veh SOX15 (11748057_x_at) / RFU CD79A (11719716_a_at) / Fold change /veh CD79A (11719716_a_at) / RFU HIST1H1D (11736915_at) / Fold change /veh HIST1H1D (11736915_at) / RFU CASKIN2 (11723855_a_at) / Fold change /veh CASKIN2 (11723855_a_at) / RFU LOC730098 (11760151_x_at) / Fold change /veh LOC730098 (11760151_x_at) / RFU OR4N2 (11742367_at) / Fold change /veh OR4N2 (11742367_at) / RFU PRRT2 (11749266_a_at) / Fold change /veh PRRT2 (11749266_a_at) / RFU SNX32 (11753110_a_at) / Fold change /veh SNX32 (11753110_a_at) / RFU CDHR5 (11726645_a_at) / Fold change /veh CDHR5 (11726645_a_at) / RFU RCAN1 (11760418_a_at) / Fold change /veh RCAN1 (11760418_a_at) / RFU FAM167A (11723789_a_at) / Fold change /veh FAM167A (11723789_a_at) / RFU FAM26E (11764081_at) / Fold change /veh FAM26E (11764081_at) / RFU ISYNA1 (11749810_s_at) / Fold change /veh ISYNA1 (11749810_s_at) / RFU ACY1 (11761880_at) / Fold change /veh ACY1 (11761880_at) / RFU 11764098_at / Fold change /veh 11764098_at / RFU SAMD14 (11745864_x_at) / Fold change /veh SAMD14 (11745864_x_at) / RFU NPB (11741838_a_at) / Fold change /veh NPB (11741838_a_at) / RFU TMPRSS6 (11731388_a_at) / Fold change /veh TMPRSS6 (11731388_a_at) / RFU KRTAP10-2 (11738614_at) / Fold change /veh KRTAP10-2 (11738614_at) / RFU ARHGAP8 /// PRR5-ARHGAP8 (11727945_x_at) / Fold change /veh ARHGAP8 /// PRR5-ARHGAP8 (11727945_x_at) / RFU KRTAP5-7 /// NADSYN1 (11734609_at) / Fold change /veh KRTAP5-7 /// NADSYN1 (11734609_at) / RFU RASL12 (11751679_a_at) / Fold change /veh RASL12 (11751679_a_at) / RFU CDKN2B (11736163_a_at) / Fold change /veh CDKN2B (11736163_a_at) / RFU PRF1 (11729649_at) / Fold change /veh PRF1 (11729649_at) / RFU, ZNF638 /// ZNF638-IT1 / Fold change vs veh, ZNF638 /// ZNF638-IT1 / RFU, PANK3 / Fold change vs veh, PANK3 / RFU, SH3YL1 / Fold change vs veh, SH3YL1 / RFU, ZEB2 / Fold change vs veh, ZEB2 / RFU, NRIP1 / Fold change vs veh, NRIP1 / RFU, PTTG1IP / Fold change vs veh, PTTG1IP / RFU, CAPN2 / Fold change vs veh, CAPN2 / RFU, MED14 / Fold change vs veh, MED14 / RFU, SNORA58 / Fold change vs veh, SNORA58 / RFU, C1orf63 / Fold change vs veh, C1orf63 / RFU, LRRFIP1 / Fold change vs veh, LRRFIP1 / RFU, NDUFAF7 / Fold change vs veh, NDUFAF7 / RFU, SLC12A2 / Fold change vs veh, SLC12A2 / RFU, IBTK / Fold change vs veh, IBTK / RFU, ESF1 / Fold change vs veh, ESF1 / Fold change vs veh, TMEM50B / RFU, TAOK1 / Fold change vs veh, TAOK1 / RFU, ACBD3 / Fold change vs veh, ACBD3 / RFU, TMA16 / Fold change vs veh, TMA16 / RFU, RWDD3 / Fold change vs veh, RWDD3 / RFU, BCAT1 / Fold change vs veh, BCAT1 / RFU, EDEM3 / Fold change vs veh, EDEM3 / RFU, TMEM33 / Fold change vs veh, TMEM33 / RFU, WDR75 / Fold change vs veh, WDR75 / RFU, AHCTF1 / Fold change vs veh, AHCTF1 / RFU, TFRC / Fold change vs veh, TFRC / RFU, ZDHHC17 / Fold change vs veh, ZDHHC17 / RFU, NOM1 / Fold change vs veh, NOM1 / RFU, ARL8B / Fold change vs veh, ARL8B / RFU, ZBTB11 / Fold change vs veh, ZBTB11 / RFU, TAMM41 / Fold change vs veh, TAMM41 / RFU, KIAA1704 /// LOC100996395 / Fold change vs veh, KIAA1704 /// LOC100996395 / RFU, ING1 / Fold change vs veh, ING1 / RFU, TRMT61B / Fold change vs veh, TRMT61B / RFU, FUBP3 / Fold change vs veh, FUBP3 / RFU, TP53 / Fold change vs veh, TP53 / RFU, TNKS2 / Fold change vs veh, TNKS2 / RFU, ZFP14 / Fold change vs veh, ZFP14 / RFU, ACTR2 / Fold change vs veh, ACTR2 / RFU, PPP3R1 / Fold change vs veh, PPP3R1 / RFU, PIK3R1 / Fold change vs veh, PIK3R1 / RFU, HNRNPA1 / Fold change vs veh, HNRNPA1 / RFU, RNF170 / Fold change vs veh, RNF170 / RFU, ZNF28 / Fold change vs veh, ZNF28 / RFU, RNGTT / Fold change vs veh, RNGTT / RFU, OGT / Fold change vs veh, OGT / RFU, BRD1 / Fold change vs veh, BRD1 / RFU, MARS / Fold change vs veh, MARS / RFU, ZNF655 / Fold change vs veh, ZNF655 / RFU, FAHD1 / Fold change vs veh, FAHD1 / RFU, BDP1 / Fold change vs veh, BDP1 / RFU, LRRCC1 / Fold change vs veh, LRRCC1 / RFU, ARID1A / Fold change vs veh, ARID1A / RFU, ZNF146 / Fold change vs veh, ZNF146 / RFU, ZNF330 / Fold change vs veh, ZNF330 / RFU, GPN3 / Fold change vs veh, GPN3 / RFU, C9orf123 / Fold change vs veh, C9orf123 / RFU, N4BP2L2 / Fold change vs veh, N4BP2L2 / RFU, ARFIP1 / Fold change vs veh, ARFIP1 / RFU, FAM179B / Fold change vs veh, FAM179B / RFU, BCL10 / Fold change vs veh, BCL10 / RFU, UHRF1BP1L / Fold change vs veh, UHRF1BP1L / RFU, BET1 / Fold change vs veh, BET1 / RFU, CNOT2 / Fold change vs veh, CNOT2 / RFU, ZNF268 / Fold change vs veh, ZNF268 / Fold change vs veh, ZNF507 / RFU, DGCR2 / Fold change vs veh, DGCR2 / RFU, WDSUB1 / Fold change vs veh, WDSUB1 / Fold change vs veh, HSP90B1 /// MIR3652 / RFU, ADSS / Fold change vs veh, ADSS / RFU, GK / Fold change vs veh, GK / RFU, ZNF148 / Fold change vs veh, ZNF148 / RFU, TAF9 / Fold change vs veh, TAF9 / RFU, SLC1A5 / Fold change vs veh, SLC1A5 / RFU, SLMO2 / Fold change vs veh, SLMO2 / RFU, ABCC4 / Fold change vs veh, ABCC4 / RFU, LOC101060439 /// RAP1B / Fold change vs veh, LOC101060439 /// RAP1B / RFU, RFX7 / Fold change vs veh, RFX7 / RFU, GTPBP10 / Fold change vs veh, GTPBP10 / RFU, CNEP1R1 / Fold change vs veh, CNEP1R1 / RFU, BIVM-ERCC5 /// ERCC5 / Fold change vs veh, BIVM-ERCC5 /// ERCC5 / RFU, ILF3 / Fold change vs veh, ILF3 / RFU 11762660_at / Fold change /veh 11762660_at / RFU VCAN (11757783_s_at) / Fold change /veh VCAN (11757783_s_at) / RFU DDX43 (11728927_at) / Fold change /veh DDX43 (11728927_at) / RFU KRT8 (11758188_x_at) / Fold change /veh KRT8 (11758188_x_at) / RFU NKD1 (11759106_at) / Fold change /veh NKD1 (11759106_at) / RFU SRD5A1 (11742802_a_at) / Fold change /veh SRD5A1 (11742802_a_at) / RFU TPSAB1 /// TPSB2 (11721975_s_at) / Fold change /veh TPSAB1 /// TPSB2 (11721975_s_at) / RFU GSTM3 (11746129_a_at) / Fold change /veh GSTM3 (11746129_a_at) / RFU IL23R (11737362_x_at) / Fold change /veh IL23R (11737362_x_at) / RFU TMEM51 (11727254_a_at) / Fold change /veh TMEM51 (11727254_a_at) / RFU PIWIL2 (11732686_x_at) / Fold change /veh PIWIL2 (11732686_x_at) / RFU ORM1 (11744905_x_at) / Fold change /veh ORM1 (11744905_x_at) / RFU CCDC152 (11743942_at) / Fold change /veh CCDC152 (11743942_at) / RFU ECM1 (11717891_a_at) / Fold change /veh ECM1 (11717891_a_at) / RFU IL23R (11748794_a_at) / Fold change /veh IL23R (11748794_a_at) / RFU TNFAIP8L3 (11732012_x_at) / Fold change /veh TNFAIP8L3 (11732012_x_at) / RFU MBOAT4 (11741988_at) / Fold change /veh MBOAT4 (11741988_at) / RFU 11764193_at / Fold change /veh 11764193_at / RFU TMEM53 (11763286_at) / Fold change /veh TMEM53 (11763286_at) / RFU MAGEB2 (11727129_at) / Fold change /veh MAGEB2 (11727129_at) / RFU TMEM200A (11744735_a_at) / Fold change /veh TMEM200A (11744735_a_at) / RFU CCDC152 (11751479_a_at) / Fold change /veh CCDC152 (11751479_a_at) / RFU FAM211A (11726209_a_at) / Fold change /veh FAM211A (11726209_a_at) / RFU RGS16 (11746705_a_at) / Fold change /veh RGS16 (11746705_a_at) / RFU VCAN (11755009_s_at) / Fold change /veh VCAN (11755009_s_at) / RFU RHOB (11743442_s_at) / Fold change /veh RHOB (11743442_s_at) / RFU RGS16 (11720943_a_at) / Fold change /veh RGS16 (11720943_a_at) / RFU RGS16 (11720944_at) / Fold change /veh RGS16 (11720944_at) / RFU, VPS4B / Fold change vs veh, VPS4B / RFU, CREB1 / Fold change vs veh, CREB1 / RFU, DNAJC13 / Fold change vs veh, DNAJC13 / RFU, GNAQ / Fold change vs veh, GNAQ / RFU, CDK5R1 / Fold change vs veh, CDK5R1 / RFU, ZRANB3 / Fold change vs veh, ZRANB3 / RFU, CUL4A / Fold change vs veh, CUL4A / RFU, CCNY / Fold change vs veh, CCNY / RFU, UFL1 / Fold change vs veh, UFL1 / RFU, COG3 / Fold change vs veh, COG3 / RFU, DIAPH2 / Fold change vs veh, DIAPH2 / RFU, SKA2 / Fold change vs veh, SKA2 / RFU, AFF3 / Fold change vs veh, AFF3 / RFU, LMF1 / Fold change vs veh, LMF1 / RFU, IPO11 / Fold change vs veh, IPO11 / RFU, DFFB / Fold change vs veh, DFFB / RFU, FOXP1 / Fold change vs veh, FOXP1 / RFU, CARD8 / Fold change vs veh, CARD8 / RFU, STRN3 / Fold change vs veh, STRN3 / RFU, ADK / Fold change vs veh, ADK / RFU, RASSF2 / Fold change vs veh, RASSF2 / RFU, WIPF1 / Fold change vs veh, WIPF1 / RFU, LARP1B / Fold change vs veh, LARP1B / RFU, RASA1 / Fold change vs veh, RASA1 / RFU, RB1 / Fold change vs veh, RB1 / RFU, PPFIA1 / Fold change vs veh, PPFIA1 / RFU, MAT2A / Fold change vs veh, MAT2A / RFU, CCT5 / Fold change vs veh, CCT5 / RFU, WDR92 / Fold change vs veh, WDR92 / RFU, CUX1 / Fold change vs veh, CUX1 / RFU, TTC7A / Fold change vs veh, TTC7A / RFU, TMEM135 / Fold change vs veh, TMEM135 / RFU, DEPTOR / Fold change vs veh, DEPTOR / RFU, CPM / Fold change vs veh, CPM / RFU, DNAJB6 / Fold change vs veh, DNAJB6 / RFU, CACNA2D3 / Fold change vs veh, CACNA2D3 / RFU, DTX4 / Fold change vs veh, DTX4 / RFU, TFCP2 / Fold change vs veh, TFCP2 / RFU, GMCL1 /// GMCL1P1 / Fold change vs veh, GMCL1 /// GMCL1P1 / RFU, AEBP2 / Fold change vs veh, AEBP2 / RFU, SNHG1 /// SNORD22 /// SNORD25 /// SNORD26 /// SNORD27 /// SNORD28 /// SNORD29 /// SNORD31 / Fold change vs veh, SNHG1 /// SNORD22 /// SNORD25 /// SNORD26 /// SNORD27 /// SNORD28 /// SNORD29 /// SNORD31 / Fold change (Aza/veh), C12orf56 (ProbeSet 11735607_a_at) / Fold change (ACY-1035/veh), C12orf56 (ProbeSet 11735607_a_at) / Fold change (Aza/veh), FGFR1OP (ProbeSet 11751329_s_at) / Fold change (ACY-1035/veh), FGFR1OP (ProbeSet 11751329_s_at) / Fold change (Aza/veh), VPS36 (ProbeSet 11739960_a_at) / Fold change (ACY-1035/veh), VPS36 (ProbeSet 11739960_a_at) / RFU SYPL1 (11715823_x_at) / Fold change /veh SYPL1 (11715823_x_at) / RFU IGFBP7 (11715501_s_at) / Fold change /veh IGFBP7 (11715501_s_at) / RFU REEP3 (11722064_at) / Fold change /veh REEP3 (11722064_at) / RFU IGLL1 (11728026_x_at) / Fold change /veh IGLL1 (11728026_x_at): dose or concentration left out as unconfirmed
Conditions: ProbeSet 11747937_a_at; LIST D

**Q.** Which “Fold change vs veh, DNAJB6” value does the source give for `Nc1ncn([C@@H]2O[C@H](CO)[C@@H](O)[C@H]2O)c(=O)n1` [azacitidine] here?
**A.** 0.52
